The values that follow come from patent publication US10781456B2, “Carbon-neutral and carbon-positive photorespiration bypass routes supporting higher photosynthetic rate and yield” (Max-Planck-Gesellschaft zur Förderung der Wissenschaften …, priority 2015, dated 2020).

Series [1] concerns the target T1, 3-phosphoglycerate kinase (Sus scrofa, UniProt Q7SIB7).
T1 sequence (Q7SIB7 1-417): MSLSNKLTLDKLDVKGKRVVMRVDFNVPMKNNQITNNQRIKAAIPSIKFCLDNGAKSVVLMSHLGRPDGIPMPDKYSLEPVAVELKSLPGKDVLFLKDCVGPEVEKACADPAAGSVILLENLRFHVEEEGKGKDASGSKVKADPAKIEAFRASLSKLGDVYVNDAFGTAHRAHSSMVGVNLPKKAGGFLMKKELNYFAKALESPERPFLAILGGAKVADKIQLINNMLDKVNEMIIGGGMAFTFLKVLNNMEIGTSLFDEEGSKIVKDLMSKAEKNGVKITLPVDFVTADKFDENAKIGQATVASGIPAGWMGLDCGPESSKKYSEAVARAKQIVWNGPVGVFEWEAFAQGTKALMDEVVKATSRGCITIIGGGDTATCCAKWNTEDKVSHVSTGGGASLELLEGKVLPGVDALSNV
As to conditions: Tompa 1986; Vas 1990; Szilagyi 1998; cited from earlier work.

Series [2] deals with D-fructose 6-phosphate aldolase encoded by E. coli gene fsaB (UniProt P32669). The note with it: cited from earlier work.
Series [3] addresses transaldolase TalB from E. coli (UniProt P0A870). The note with it: cited from earlier work.
Series [4] concerns the target D-fructose 6-phosphate aldolase encoded by E. coli gene fsaA (UniProt P78055). The note with it: cited from earlier work.
Series [5] concerns the target transaldolase Tal from C. glutamicum (UniProt Q8NQ64). As to conditions: cited from earlier work.
Series [6] deals with transaldolase Tal from B. subtilis (UniProt P19669). As to conditions: cited from earlier work.
Substrate in series [7]: O=C(COP(=O)(O)O)[C@H](O)[C@H](O)CO
Briefly: isomerisation of D-ribulose 1-phosphate to D-ribose 1-phosphate (reaction 29#), preliminary study. Type of series: biochemical. The note with it: other: preliminary study.

Substrate in series [8]: O=C(O)CO
Briefly: purified protein, by the assay type. The note with it: other: 37° C., pH 7.5, 2 mM acetyl-CoA, 10-800 mM glycolate, n=3.

Where [9] appears, read: as an acceptor, read-out: KM for glycolaldehyde as an acceptor.
Setting [10] is: bound stated for both fsaA and fsaB enzymes, read-out: KM (condensation of glycolaldehyde as donor with D-glyceraldehyde 3-phosphate as acceptor).
The mark [11] stands for this setting: D-fructose 6-phosphate and glycolaldehyde, range over the three transaldolases.
The mark [12] stands for this setting: transaldolase reaction with D-fructose 6-phosphate, read-out: KM towards glycolaldehyde.

Read-outs that look alike come from different tables or passages of the source.

As to `O=C(O)COP(=O)(O)O` [2-PG, 2-phosphoglycolate], the “type of inhibition of 3-phosphoglycerate kinase” value in series [1] is on record as “competitive inhibitor”.
As for `O=CCO` [glycolaldehyde], the Km (usually the concentration of substrate that gives half-maximal velocity) in series [2] (setting [9]) was more than 60 mM; in series [2] (setting [10]), less than 1 mM; in series [3] (setting [12]) it was more than 60 mM; in series [4] (setting [9]) it was more than 60 mM; in series [4] (setting [10]), less than 1 mM; in series [4] (read-out: KM for glycolaldehyde), approximately 0.2 mM. The Km in series [5] (setting [12]) and in series [6] (setting [12]) was more than 60 mM each time. Moreover, the vmax in series [3] (setting [11]), in series [5] (setting [11]) and in series [6] (setting [11]) was 1.6 to 8.8 µmol/min/mg throughout.

B1: 5-methylthio-D-ribulose 1-phosphate 1,2-isomerase Rru_A0360 (Rhodospirillum rubrum ATCC 11170) (protein)
chain: MNVKGTPTRTIWPAREGGAVWIIDQTRLPHEFVTQRLNDLGAVAHAIRAMLVRGAPLIGATAAYGVALGMAEDPSDEGLTRACQTLLATRPTAVNLRWAIEAMAESLAAVPPDQRAQAAWAKAGAICDEDVALNEAIGDHGLGIIKDLARTKGVEKGGEGPINILTHCNAGWLATVDWGTALAPLYKAHDAGLPIHVWVDETRPRNQGASLTAWELNSHGVPHTVIADNTGGHLMQHGLVDMVIVGTDRTTATGDVCNKIGTYLKALAAFDNAVPFYVALPGPTIDWTVNDGLREIPIEQRDAAEVTRVWGRTAAGALEWVTITPTGSPAANYAFDVTPARLITGLITERGVCAASAAGLAGLYPERAPAPVPAGSAAGKGAAATADGAL
notes: preliminary kinetics, preparation not described
As for B1, in series [7], the kcat (as a rule, the maximal rate divided by the concentration of active sites) was 0.03 s⁻¹.

B2: propionyl-CoA transferase from Ralstonia eutropha (PCTRe), wild type, SEQ ID NO: 12 (Cupriavidus necator H16) (protein)
chain: MKVITAREAAALVQDGWTVASAGFVGAGHAEAVTEALEQRFLQSGLPRDLTLVYSAGQGDRGARGVNHFGNAGMTASIVGGHWRSATRLATLAMAEQCEGYNLPQGVLTHLYRAIAGGKPGVMTKIGLHTFVDPRTAQDARYHGGAVNERARQAIAEGKACWVDAVDFRGDEYLFYPSFPIHCALIRCTAADARGNLSTHREAFHHELLAMAQAAHNSGGIVIAQVESLVDHHEILQAIHVPGILVDYVVVCDNPANHQMTFAESYNPAYVTPWQGEAAVAEAEAAPVAAGPLDARTIVQRRAVMELARRAPRVVNLGVGMPAAVGMLAHQAGLDGFTLTVEAGPIGGTPADGLSFGASAYPEAVVDQPAQFDFYEGGGIDLAILGLAELDGHGNVNVSKFGEGEGASIAGVGGFINITQSARAVVFMGTLTAGGLEVRAGDGGLQIVREGRVKKIVPEVSHLSFNGPYVASLGIPVLYITERAVFEMRAGADGEARLTLVEIAPGVDLQRDVLDQCSTPIAVAQDLREMDARLFQAGPLHL
B2: in series [8], the Km was 51.7 ± 9.6 mM (glycolate) mM.
